Measurements from the supplement of paper PMC10307832.

Tests used:
Test in all cases: relative viability (nuclei count vs DMSO), 5 days (fraction); higher = more cells survive
Carfilzomib + AZD7762 = compound: CC(C)C[C@H](NC(=O)[C@H](CCc1ccccc1)NC(=O)CN1CCOCC1)C(=O)N[C@@H](Cc1ccccc1)C(=O)N[C@@H](CC(C)C)C(=O)[C@@]1(C)CO1 [Carfilzomib] + NC(=O)Nc1cc(-c2cccc(F)c2)sc1C(=O)N[C@H]1CCCNC1 [AZD7762] (partner 0.2 µM)
Outline: (§1)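 Lung cancer cell lines were pin-tool dosed in 1536-well plates on the day after seeding, with either a lone drug or a fixed anchor-drug dose plus five library-drug doses (not always all listed) in √10 steps. Nuclei were counted on 4× images after 5 days. Relative viability is the ratio of treated-well to vehicle-well nuclei counts, with each value a median of duplicate plates.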

Carfilzomib + Trametinib = compound: CC(C)C[C@H](NC(=O)[C@H](CCc1ccccc1)NC(=O)CN1CCOCC1)C(=O)N[C@@H](Cc1ccccc1)C(=O)N[C@@H](CC(C)C)C(=O)[C@@]1(C)CO1 [Carfilzomib] + CC(=O)Nc1cccc(-n2c(=O)n(C3CC3)c(=O)c3c(Nc4ccc(I)cc4F)n(C)c(=O)c(C)c32)c1 [Trametinib] (partner 0.02 µM)
Outline: as §1

Olaparib + Linsitinib = compound: O=C(c1cc(Cc2n[nH]c(=O)c3ccccc23)ccc1F)N1CCN(C(=O)C2CC2)CC1 [Olaparib] + C[C@]1(O)C[C@@H](c2nc(-c3ccc4ccc(-c5ccccc5)nc4c3)c3c(N)nccn32)C1 [Linsitinib] (partner 1 µM)
Outline: as §1

Crizotinib + Pemetrexed = compound: C[C@@H](Oc1cc(-c2cnn(C3CCNCC3)c2)cnc1N)c1c(Cl)ccc(F)c1Cl [Crizotinib] + Nc1nc2[nH]cc(CCc3ccc(C(=O)N[C@@H](CCC(=O)O)C(=O)O)cc3)c2c(=O)[nH]1 [Pemetrexed] (partner 0.2 µM)
Outline: as §1

Cell Line	relative viability (Carfilzomib + AZD7762; first compound 0.001 µM)	relative viability (Carfilzomib + AZD7762; first compound 0.003162 µM)	relative viability (Carfilzomib + AZD7762; first compound 0.01 µM)	relative viability (Carfilzomib + AZD7762; first compound 0.03162 µM)	relative viability (Carfilzomib + AZD7762; first compound 0.1 µM)	relative viability (Carfilzomib + Trametinib; first compound 0.001 µM)	relative viability (Carfilzomib + Trametinib; first compound 0.003162 µM)	relative viability (Carfilzomib + Trametinib; first compound 0.01 µM)	relative viability (Carfilzomib + Trametinib; first compound 0.03162 µM)	relative viability (Carfilzomib + Trametinib; first compound 0.1 µM)	relative viability (Olaparib + Linsitinib; first compound 0.08 µM)	relative viability (Olaparib + Linsitinib; first compound 0.253 µM)	relative viability (Olaparib + Linsitinib; first compound 2.53 µM)	relative viability (Olaparib + Linsitinib; first compound 8 µM)	relative viability (Crizotinib + Pemetrexed; first compound 0.01 µM)	relative viability (Crizotinib + Pemetrexed; first compound 0.03162 µM)	relative viability (Crizotinib + Pemetrexed; first compound 0.1 µM)	relative viability (Crizotinib + Pemetrexed; first compound 0.3162 µM)	relative viability (Crizotinib + Pemetrexed; first compound 1 µM)
NCI-H460	0.655	0.567	0.687	0.732	0.0739	0.116	0.143	0.181	0.13	0.0157	0.86	0.614	0.316	0.191	0.0615	0.0628	0.0607	0.0596	0.0647
NCI-H596	1.05	1.22	1.09	0.66	0.211	0.785	0.804	0.952	0.69	0.205	1.04	0.856	0.923	0.744	0.462	0.48	0.509	0.458	0.509
NCI-H647	0.385	0.468	0.29	0.0154	0.0223	0.415	0.529	0.538	0.0767	0.0407	1.4	1.05	0.919	0.779	0.162	0.188	0.146	0.177	0.186
NCI-H650	0.862	1.1	0.964	0.88	0.23	0.899	1.1	1.08	0.798	0.169	0.806	0.735	0.776	0.724	1.09	0.907	0.956		0.984
NCI-H838	0.945	0.989	0.954	0.962	0.621	0.517	0.575	0.614	0.215	0.0888	1.05	0.928	0.971	0.933	0.214	0.237	0.253	0.265	0.24
NCI-H1355	0.8	0.886	0.91	0.512	0.207	0.42	0.469	0.422	0.44	0.139	0.882	0.811	0.775	0.637	0.998	0.928	1.08	0.976	1.07
NCI-H1395		0.451	0.399	0.346	0.327		0.997	1.11	0.566	0.344	1.14	0.896	0.67	0.734	0.91		0.888	0.731	0.88
